Source: ChEMBL document CHEMBL1909046, “DrugMatrix in vitro pharmacology data”

What was measured:
[1] = target: Beta-1 adrenergic receptor (Homo sapiens, UniProt P08588); assay: DRUGMATRIX: Adrenergic beta1 radioligand binding (ligand: [125I] Cyanopindolol); format: cell membranes, CHO-K1, Membrane; settings: cho-k1; Not Active = under 50% inhibition at 10 µM
[2] = target: Epidermal growth factor receptor (Homo sapiens, UniProt P00533); assay: DRUGMATRIX: Protein Tyrosine Kinase, EGF Receptor enzyme inhibition (substrate: Poly(Glu:Tyr)); format: cell-based, Insect cells; settings: Not Active = under 50% inhibition at 10 µM
[3] = target: C-C chemokine receptor type 5 (Homo sapiens, UniProt P51681); format: cell membranes, Membrane; settings: hek293; further: in other assays of this panel Not Active means under 50% inhibition at 10 µM
[4] = DRUGMATRIX: Phosphodiesterase PDE3 enzyme inhibition (substrate: [3H]cAMP + cAMP); format: tissue-based, Homo sapiens; settings: platelet; Not Active = under 50% inhibition at 10 µM
[5] = DRUGMATRIX: GABAA, Flunitrazepam, Central radioligand binding (ligand: [3H] Flunitrazepam); format: cell membranes, Rattus norvegicus, Wistar, Brain, Membrane; settings: Not Active = under 50% inhibition at 10 µM
Cannabinoid receptor 1 = Cannabinoid receptor 1 (Homo sapiens, UniProt P21554); format: cell membranes, Membrane; settings: chem-1; further: in other assays of this panel Not Active means under 50% inhibition at 10 µM
[6] = target: T1, Vasoactive intestinal polypeptide receptor 1 (Homo sapiens, UniProt P32241); format: cell membranes, Membrane; settings: ht-29; further: in other assays of this panel Not Active means under 50% inhibition at 10 µM
T1 sequence (P32241 whole entry): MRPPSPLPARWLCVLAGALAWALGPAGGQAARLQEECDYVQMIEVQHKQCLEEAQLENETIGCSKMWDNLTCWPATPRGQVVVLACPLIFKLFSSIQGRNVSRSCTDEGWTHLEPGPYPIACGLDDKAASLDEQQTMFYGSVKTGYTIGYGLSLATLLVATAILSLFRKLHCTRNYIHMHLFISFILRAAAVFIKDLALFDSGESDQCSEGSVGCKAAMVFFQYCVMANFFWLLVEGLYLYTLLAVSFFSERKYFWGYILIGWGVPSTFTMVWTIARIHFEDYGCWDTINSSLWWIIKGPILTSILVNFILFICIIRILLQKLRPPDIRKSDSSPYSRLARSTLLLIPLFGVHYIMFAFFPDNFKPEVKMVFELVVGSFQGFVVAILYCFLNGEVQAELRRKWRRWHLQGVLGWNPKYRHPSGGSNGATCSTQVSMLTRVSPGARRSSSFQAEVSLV

Cytochrome P450 3A4 = Cytochrome P450 3A4 (Homo sapiens, UniProt P08684); settings: bti-tn-5b1-4; further: in other assays of this panel Not Active means under 50% inhibition at 10 µM
Chain of Cytochrome P450 3A4 (P08684 whole entry): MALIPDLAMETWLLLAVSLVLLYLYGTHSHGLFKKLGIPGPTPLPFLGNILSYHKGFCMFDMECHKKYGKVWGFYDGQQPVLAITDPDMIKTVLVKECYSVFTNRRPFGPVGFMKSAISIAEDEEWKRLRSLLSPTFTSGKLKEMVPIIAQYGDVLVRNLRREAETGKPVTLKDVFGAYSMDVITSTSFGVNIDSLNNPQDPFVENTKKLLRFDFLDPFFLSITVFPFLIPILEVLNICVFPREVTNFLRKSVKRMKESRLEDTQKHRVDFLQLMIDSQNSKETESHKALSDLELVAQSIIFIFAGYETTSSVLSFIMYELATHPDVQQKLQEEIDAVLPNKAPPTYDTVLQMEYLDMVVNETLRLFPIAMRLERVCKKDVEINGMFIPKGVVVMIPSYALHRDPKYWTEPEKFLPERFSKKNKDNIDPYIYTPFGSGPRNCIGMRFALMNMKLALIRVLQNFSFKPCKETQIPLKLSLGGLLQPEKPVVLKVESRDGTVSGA

Chain of Beta-1 adrenergic receptor (P08588 whole entry): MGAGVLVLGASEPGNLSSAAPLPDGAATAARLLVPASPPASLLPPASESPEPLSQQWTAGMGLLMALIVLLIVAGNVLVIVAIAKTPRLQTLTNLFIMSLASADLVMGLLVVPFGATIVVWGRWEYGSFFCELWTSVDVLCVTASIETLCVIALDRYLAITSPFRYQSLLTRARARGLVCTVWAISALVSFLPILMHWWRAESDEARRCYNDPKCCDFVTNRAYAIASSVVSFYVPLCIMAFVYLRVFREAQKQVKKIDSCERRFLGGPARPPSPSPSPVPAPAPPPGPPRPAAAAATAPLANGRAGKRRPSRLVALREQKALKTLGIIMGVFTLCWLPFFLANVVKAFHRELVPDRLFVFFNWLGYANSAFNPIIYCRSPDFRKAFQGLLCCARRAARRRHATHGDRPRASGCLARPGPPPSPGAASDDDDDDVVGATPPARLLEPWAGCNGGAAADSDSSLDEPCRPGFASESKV
Chain of C-C chemokine receptor type 5 (P51681 whole entry): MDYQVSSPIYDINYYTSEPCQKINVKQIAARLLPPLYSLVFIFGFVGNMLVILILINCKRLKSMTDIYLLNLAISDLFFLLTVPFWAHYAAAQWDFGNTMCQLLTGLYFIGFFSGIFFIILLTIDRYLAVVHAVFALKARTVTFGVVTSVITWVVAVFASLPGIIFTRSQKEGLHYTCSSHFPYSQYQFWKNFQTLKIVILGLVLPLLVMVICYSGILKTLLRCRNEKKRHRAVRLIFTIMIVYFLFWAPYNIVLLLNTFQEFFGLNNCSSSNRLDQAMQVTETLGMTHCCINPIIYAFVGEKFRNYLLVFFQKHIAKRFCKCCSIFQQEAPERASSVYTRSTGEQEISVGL
Chain of Epidermal growth factor receptor (P00533 whole entry): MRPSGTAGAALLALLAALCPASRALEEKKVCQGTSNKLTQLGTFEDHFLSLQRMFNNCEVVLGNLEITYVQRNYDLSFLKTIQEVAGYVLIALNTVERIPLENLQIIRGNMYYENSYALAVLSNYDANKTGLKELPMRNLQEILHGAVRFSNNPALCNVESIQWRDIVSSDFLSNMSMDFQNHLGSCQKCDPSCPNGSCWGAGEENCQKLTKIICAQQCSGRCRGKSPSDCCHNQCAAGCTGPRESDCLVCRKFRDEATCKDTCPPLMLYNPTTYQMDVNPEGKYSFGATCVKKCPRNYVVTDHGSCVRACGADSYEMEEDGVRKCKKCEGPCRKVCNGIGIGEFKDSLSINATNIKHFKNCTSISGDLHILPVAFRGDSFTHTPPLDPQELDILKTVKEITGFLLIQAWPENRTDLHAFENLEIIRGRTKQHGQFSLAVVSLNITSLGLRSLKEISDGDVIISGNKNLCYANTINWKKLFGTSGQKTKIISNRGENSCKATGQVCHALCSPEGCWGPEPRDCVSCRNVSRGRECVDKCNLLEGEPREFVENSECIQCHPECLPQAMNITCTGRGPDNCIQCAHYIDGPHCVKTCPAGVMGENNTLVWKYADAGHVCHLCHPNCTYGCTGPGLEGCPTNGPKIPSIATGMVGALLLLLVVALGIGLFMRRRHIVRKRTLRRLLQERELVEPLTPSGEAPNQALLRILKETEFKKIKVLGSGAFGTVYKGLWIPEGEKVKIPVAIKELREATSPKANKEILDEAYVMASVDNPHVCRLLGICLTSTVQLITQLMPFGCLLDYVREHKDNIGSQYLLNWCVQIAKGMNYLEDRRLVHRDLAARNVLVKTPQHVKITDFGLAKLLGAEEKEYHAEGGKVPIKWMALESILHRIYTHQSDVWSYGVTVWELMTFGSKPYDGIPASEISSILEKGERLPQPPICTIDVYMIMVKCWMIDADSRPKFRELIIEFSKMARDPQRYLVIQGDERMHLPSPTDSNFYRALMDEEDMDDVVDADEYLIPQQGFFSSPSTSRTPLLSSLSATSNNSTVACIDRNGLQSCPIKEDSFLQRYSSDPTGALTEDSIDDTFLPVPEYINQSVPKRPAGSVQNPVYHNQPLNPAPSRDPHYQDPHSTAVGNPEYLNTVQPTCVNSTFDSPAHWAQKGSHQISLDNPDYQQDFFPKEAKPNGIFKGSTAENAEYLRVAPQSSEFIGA
Chain of Cannabinoid receptor 1 (P21554 whole entry): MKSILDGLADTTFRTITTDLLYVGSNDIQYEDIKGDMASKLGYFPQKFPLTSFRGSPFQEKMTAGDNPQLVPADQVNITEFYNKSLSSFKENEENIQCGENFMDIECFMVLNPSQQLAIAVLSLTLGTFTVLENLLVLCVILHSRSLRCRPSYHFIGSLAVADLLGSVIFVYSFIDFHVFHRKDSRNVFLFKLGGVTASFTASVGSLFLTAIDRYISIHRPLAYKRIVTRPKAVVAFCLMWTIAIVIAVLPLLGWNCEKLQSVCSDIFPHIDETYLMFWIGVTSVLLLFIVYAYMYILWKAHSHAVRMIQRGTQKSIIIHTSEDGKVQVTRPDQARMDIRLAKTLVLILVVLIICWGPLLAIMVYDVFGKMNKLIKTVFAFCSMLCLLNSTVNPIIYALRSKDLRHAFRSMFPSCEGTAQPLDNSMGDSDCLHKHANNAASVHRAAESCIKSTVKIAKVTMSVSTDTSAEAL

Row | SMILES | IC50 [1] | IC50 ([2]; insect cells) | IC50 [3] | IC50 [4] | Ki [4] | IC50 [5] | Ki [5] | IC50 (Cannabinoid receptor 1) | IC50 [6] | IC50 (Cytochrome P450 3A4) | Ki (Cytochrome P450 3A4) | IC50 ([2]; read-out: IC50)
1 | CC(C)CN(C[C@@H](O)[C@H](Cc1ccccc1)NC(=O)O[C@H]1CCOC1)S(=O)(=O)c1ccc(N)cc1 | Not Active | Not Active | Not Active | Not Active | Not Active | Not Active | Not Active | Not Active | Not Active | – | – | –
2 | c1ccc(Nc2ccc(Nc3ccccc3)cc2)cc1 | Not Active | Not Active | Not Active | Not Active | Not Active | Not Active | Not Active | Not Active | Not Active | Not Active | Not Active | –
3 | COc1cc2c3cc1Oc1cc(ccc1O)C[C@@H]1c4c(cc(OC)c(O)c4Oc4ccc(cc4)C[C@@H]3N(C)CC2)CC[N+]1(C)C.[Cl-] | Not Active | Not Active | Not Active | Not Active | Not Active | Not Active | Not Active | Not Active | Not Active | Not Active | Not Active | –
4 | NC(=O)N1c2ccccc2CCc2ccccc21 | Not Active | Not Active | Not Active | Not Active | Not Active | Not Active | Not Active | Not Active | Not Active | Not Active | Not Active | –
5 | O=C1CC[C@@H](N2C(=O)c3ccccc3C2=O)C(=O)N1 | Not Active | Not Active | Not Active | Not Active | Not Active | Not Active | Not Active | Not Active | Not Active | Not Active | Not Active | –
6 | Cc1onc(O)c1CC(N)C(=O)O (racemic) [(R,S)-AMPA] | Not Active | Not Active | Not Active | Not Active | Not Active | Not Active | Not Active | Not Active | Not Active | Not Active | Not Active | –
7 | Cc1ccc2cc3c(ccc4ccccc43)c3c2c1CC3 [3-METHYLCHOLANTHRENE] | Not Active | Not Active | Not Active | Not Active | Not Active | Not Active | Not Active | Not Active | Not Active | Not Active | Not Active | –
8 | CN(C)c1nc(N(C)C)nc(N(C)C)n1 [ALTRETAMINE] | Not Active | Not Active | Not Active | Not Active | Not Active | Not Active | Not Active | Not Active | Not Active | – | – | –
9 | Nc1c(Br)cc(Br)cc1CN[C@H]1CC[C@H](O)CC1 [AMBROXOL] | Not Active | Not Active | Not Active | Not Active | Not Active | Not Active | Not Active | Not Active | Not Active | – | – | –
10 | CNCCc1ccccn1 [BETAHISTINE] | – | Not Active | Not Active | Not Active | Not Active | Not Active | Not Active | Not Active | Not Active | Not Active | Not Active | –
11 | CN(C)CCCN1c2ccccc2Sc2ccc(Cl)cc21 [CHLORPROMAZINE] | Not Active | – | Not Active | Not Active | Not Active | Not Active | Not Active | Not Active | Not Active | – | – | 28.9 µM
12 | CC(C)(Oc1ccc(Cl)cc1)C(=O)O [CLOFIBRIC ACID] | Not Active | Not Active | Not Active | Not Active | Not Active | Not Active | Not Active | Not Active | Not Active | – | – | –
13 | Cc1cc(C(C#N)c2ccc(Cl)cc2)c(Cl)cc1NC(=O)c1cc(I)cc(I)c1O (centres undefined) [CLOSANTEL] | Not Active | – | Not Active | Not Active | Not Active | Not Active | Not Active | Not Active | Not Active | – | – | 0.564 µM
14 | CNCCCN1c2ccccc2CCc2ccccc21 [DESIPRAMINE] | – | Not Active | Not Active | Not Active | Not Active | Not Active | Not Active | Not Active | Not Active | Not Active | Not Active | –
15 | CC(C)[C@@]1(NC(=O)[C@@H]2C[C@@H]3c4cccc5[nH]cc(c45)C[C@H]3N(C)C2)O[C@@]2(O)[C@@H]3CCCN3C(=O)[C@H](Cc3ccccc3)N2C1=O.CS(=O)(=O)O [DIHYDROERGOCRISTINE MESYLATE] | Not Active | Not Active | Not Active | Not Active | Not Active | Not Active | Not Active | Not Active | Not Active | – | – | –
16 | CC(=O)O[C@@]12CO[C@@H]1C[C@H](O)[C@@]1(C)C(=O)[C@H](O)C3=C(C)[C@@H](OC(=O)[C@H](O)[C@@H](NC(=O)OC(C)(C)C)c4ccccc4)C[C@@](O)([C@@H](OC(=O)c4ccccc4)[C@H]21)C3(C)C.O.O.O [DOCETAXEL] | Not Active | Not Active | Not Active | Not Active | Not Active | Not Active | Not Active | Not Active | Not Active | – | – | –
17 | COc1cc2nc(N3CCN(C(=O)C4COc5ccccc5O4)CC3)nc(N)c2cc1OC (centres undefined) [DOXAZOSIN] | – | Not Active | Not Active | Not Active | Not Active | Not Active | Not Active | Not Active | Not Active | – | – | –
18 | CC(C)[C@H]1C(=O)N2CCC[C@H]2[C@]2(O)O[C@](NC(=O)[C@@H]3C=C4c5cccc6[nH]cc(c56)C[C@H]4N(C)C3)(C(C)C)C(=O)N12 [ERGOCORNINE] | Not Active | Not Active | Not Active | Not Active | Not Active | Not Active | Not Active | Not Active | Not Active | – | – | –
19 | C[C@]12CC[C@@H]3c4ccc(O)cc4CC[C@H]3[C@@H]1CCC2=O [ESTRONE] | Not Active | Not Active | Not Active | Not Active | Not Active | Not Active | Not Active | Not Active | Not Active | – | – | –
20 | N=C(N)NCCN1CCCCCCC1 [GUANETHIDINE] | Not Active | Not Active | Not Active | Not Active | Not Active | Not Active | Not Active | Not Active | Not Active | – | – | –
21 | Nc1nc(N)nc(-c2cc(Cl)ccc2Cl)n1.O=C(O)/C=C\C(=O)O [IRSOGLADINE MALEATE] | – | Not Active | Not Active | Not Active | Not Active | Not Active | Not Active | Not Active | Not Active | Not Active | Not Active | –
22 | CCC(C)n1ncn(-c2ccc(N3CCN(c4ccc(OCC5COC(Cn6cncn6)(c6ccc(Cl)cc6Cl)O5)cc4)CC3)cc2)c1=O (centres undefined) [ITRACONAZOLE] | Not Active | Not Active | Not Active | Not Active | Not Active | Not Active | Not Active | Not Active | Not Active | – | – | –
23 | COCCc1ccc(OCC(O)CNC(C)C)cc1 (centres undefined) [METOPROLOL] | – | Not Active | Not Active | Not Active | Not Active | Not Active | Not Active | Not Active | Not Active | Not Active | Not Active | –
24 | CC1(C)S[C@@H]2[C@H](NC(=O)Cc3ccccc3)C(=O)N2[C@H]1C(=O)O [PENICILLIN G] | Not Active | Not Active | Not Active | Not Active | Not Active | Not Active | Not Active | Not Active | Not Active | – | – | –
25 | Cc1ccc(N(CC2=NCCN2)c2cccc(O)c2)cc1 [PHENTOLAMINE] | Not Active | Not Active | Not Active | Not Active | Not Active | Not Active | Not Active | Not Active | Not Active | – | – | –
26 | CN(C)CCCN1c2ccccc2Sc2ccccc21 [PROMAZINE] | Not Active | Not Active | Not Active | Not Active | Not Active | Not Active | Not Active | Not Active | Not Active | – | – | –
